Measurements: patent publication US9487489B2, “Halogen-substituted pyrazole derivatives as pest-control agents” (BAYER CROPSCIENCE AKTIENGESELLSCHAFT, priority 2013, dated 2016)

How the values were obtained:
[1] = logP determination by HPLC on a reversed-phase column (C18), EEC Directive 79/831 Annex V.A8; format: physicochemical; settings: HPLC on reversed-phase column (C18), acetonitrile/water with formic acid, EEC Directive 79/831 Annex V.A8
In short: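 Per EEC 79/831 Annex V.A8, values derive from HPLC retention at 2.0 ml/min and 55° C on a 50*4.6 C18 column. The 10→95% acetonitrile gradient (0.1%/0.09% formic acid) lasted 4.25 min plus a 1.25 min hold; mass detection was by MSD.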

[2] = tested on: green peach aphid (Myzus persicae); test: Myzus persicae spray test (MYZUPE); format: in vivo; settings: Chinese cabbage leaf discs, after 6 days
Method: G. Myzus persicae-spray Test (MYZUPE)
Solvents: 78 parts by weight of acetone
• 1.5 parts by weight of dimethylformamide Emulsifier: alkylaryl polyglycol ether
To produce a suitable preparation of active compound, 1 part by weight of active compound is dissolved using the stated parts by weight of solvent and made up with water comprising an emulsifier concentration of 1000 ppm until the desired concentration is reached. To produce further test concentrations, the preparation is diluted with emulsifier-containing water.
Discs of Chinese cabbage leaves (Brassica pekinensis) infested by all stages of the green peach aphid (Myzus persicae) are sprayed with an active compound preparation of the desired concentration.
After 6 days, the efficacy in % is determined 100% here means that all of the aphids have been killed; 0% means that no aphids have been killed.

[3] = tested on: larvae of the mustard beetle (Phaedon cochleariae); test: Phaedon cochleariae spray test (PHAECO); format: in vivo; settings: Chinese cabbage leaf discs, after 7 days
In short: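 Kill of mustard beetle larvae is read as % mortality 7 days after spraying. Spray liquid: active compound in acetone plus dimethylformamide, brought up with water holding 1000 ppm alkylaryl polyglycol ether emulsifier and diluted further in emulsifier-water.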

[4] = tested on: caterpillars of the armyworm (Spodoptera frugiperda); test: Spodoptera frugiperda spray test (SPODFR); format: in vivo; settings: maize leaf discs, after 7 days
In short: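 Percent kill read at day 7 on caterpillar-infested maize leaf discs. Discs were first sprayed with aqueous emulsifier-containing (1000 ppm) preparations made from acetone/dimethylformamide solutions, and dried. Scale: 0% none dead, 100% all dead.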

[5] = tested on: greenhouse red spider mite (Tetranychus urticae); test: Tetranychus urticae spray test, OP-resistant (TETRUR); format: in vivo; settings: bean leaf discs, after 6 days
In short: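 Percent kill, scored 6 days post-spray (0% = none dead, 100% = all dead), on Phaseolus vulgaris leaf discs infested with every life stage of the OP-resistant spider mite. Compound dissolved in acetone plus DMF, diluted to test concentration with emulsifier-containing water (1000 ppm).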

[6] = tested on: adult cat fleas (Ctenocephalides felis); test: Ctenocephalides felis in vitro contact test with adult cat fleas (T1); settings: after 48 h
In short: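 Adult cat fleas (Ctenocephalides felis), 5-10 per tube, were exposed to the inner surface of 25 ml test tubes coated with compound in acetone. Tubes were incubated lying flat under ambient conditions. Efficacy was then read by standing tubes upright and knocking the fleas to the floor. Fleas that stayed motionless or moved uncoordinatedly counted as dead or moribund, where 100% means all fleas dead or moribund and 0% means none harmed.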

[7] = tested on: adult dog ticks (Rhipicephalus sanguineus); test: Rhipicephalus sanguineus in vitro contact test with adult brown dog ticks (T2); settings: after 48 h
In short: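 Acetone solutions coated onto test tube walls and floor, giving 5 μg/cm^2 at 900 ppm. Five to ten adult ticks held per tube in the dark at room temperature for 48 h, then heated at 45-50° C for up to 5 min; efficacy is the percentage of dead or moribund ticks unable to climb away.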

SMILES | logP [1] | efficacy in % ([2]; application rate 100 g/ha) [%] | efficacy in % ([3]; application rate 100 g/ha) [%] | efficacy in % ([4]; application rate 100 g/ha) [%] | efficacy in % ([5]; application rate 100 g/ha) [%] | efficacy in % ([2]; application rate 500 g/ha) [%] | efficacy in % ([3]; application rate 500 g/ha) [%] | efficacy in % ([4]; application rate 500 g/ha) [%] | efficacy in % ([5]; application rate 500 g/ha) [%] | efficacy (dead or moribund fleas) ([6]; application rate 1 μg/cm^2) [%] | efficacy (dead or moribund fleas) ([6]; application rate 5 μg/cm^2) [%] | efficacy (dead or moribund ticks) ([7]; application rate 1 μg/cm^2) [%] | efficacy (dead or moribund ticks) ([7]; application rate 5 μg/cm^2) [%]
Cn1nc(C(F)(F)F)c(C(F)(F)F)c1-n1cc(-c2ccc(Cl)c(C(=O)NC3(C#N)CC3)c2)cn1 [Ic-127] | 3.3 | 100 | 100 | 100 | 100 | – | – | – | – | – | – | – | –
Cn1nc(C(F)(F)F)c(CF)c1-n1cc(-c2ccc(Cl)c(C(=O)NC3(C#N)CC3)c2)cn1 [Ic-115] | 2.89 | 90 | 100 | 100 | 100 | – | – | – | – | – | – | – | –
Cc1ccc(-c2cnn(-c3c(C(F)(F)F)c(C(F)(F)C(F)(F)F)nn3C)c2)cc1C(=O)NC1(C#N)CC1 [Ic-129] | 3.73 | 90 | 100 | 100 | 100 | – | – | – | – | – | – | – | –
CSCCNC(=O)c1cc(-c2cnn(-c3c(C(F)(F)F)c(C(F)(F)C(F)(F)F)nn3C)c2)ccc1Cl [Ic-167] | – | – | – | – | – | 90 | 100 | 100 | 100 | 100 | 100 | 100 | 100
Cn1nc(C(F)(F)C(F)(F)F)c(C(F)(F)F)c1-n1cc(-c2ccc(Cl)c(C(=O)NC3CCCC3)c2)cn1 [Ic-141] | – | – | – | – | – | 100 | 100 | 100 | 100 | 100 | 100 | 80 | 100
CCN(CC)S(=O)(=O)c1ccc(-c2cnn(-c3c(C(F)(F)F)c(C(F)(F)C(F)(F)F)nn3C)c2)cc1C(=O)NC1CC1 [Ic-185] | 3.99 | 100 | 100 | 100 | 100 | – | – | – | – | – | – | – | –
CCOC1CC1NC(=O)c1cc(-c2cnn(-c3c(C(F)(F)F)c(C(F)(F)C(F)(F)F)nn3C)c2)ccc1Cl (stereo not shown) [Ic-186] | 3.73 | 90 | – | – | – | – | 100 | 100 | 90 | – | – | – | –
CC1CC1NC(=O)c1cc(-c2cnn(-c3c(C(F)(F)F)c(C(F)(F)C(F)(F)F)nn3C)c2)ccc1Cl (stereo not shown) [Ic-79] | 4.15 | 90 | 100 | 100 | 100 | – | – | – | – | – | – | – | –
Cn1nc(C(F)(F)F)c(C(F)(F)F)c1-n1cc(-c2ccc(Cl)c(C(=O)NC3CC3)c2)cn1 [Ic-126] | 3.42 | 100 | 100 | 100 | 100 | – | – | – | – | – | – | – | –
Cn1nc(C(F)(F)C(F)(F)F)c(C(F)(F)F)c1-n1cc(-c2ccc(Cl)c(C(=O)NC3CC3C(F)(F)F)c2)cn1 (stereo not shown) [Ic-181] | 4.26 | – | – | – | – | 100 | 100 | 100 | 100 | – | – | – | –
COC1(NC(=O)c2cc(-c3cnn(-c4c(C(F)(F)F)c(C(F)(F)C(F)(F)F)nn4C)c3)ccc2Cl)CC1 [Ic-187] | 3.83 | – | – | – | – | 90 | 100 | 100 | 100 | – | – | – | –
